Results reported in the NIST ThermoML archive (doi:10.1016/j.tca.2018.04.014).
Numbers after ± are expanded uncertainties.

Columns and labels:
[1] = Molar enthalpy of transition or fusion; conditions: DSC
[2] = DSC

Structure (SMILES)	Molar enthalpy of transition or fusion ([1]; Crystal 2)	Molar enthalpy of transition or fusion ([1]; Crystal 3)	Triple point temperature ([2]; Crystal 1)	Triple point temperature ([2]; Crystal 2)	Triple point temperature ([2]; Crystal 3)
CC1(C)[C@@H]2CC[C@@]1(C)C(=O)C2 [d-camphor]	0.15 ± 0.71 kJ/mol	11.2 ± 0.76 kJ/mol	452.7 ± 3.1 K	372.3 ± 3.1 K	242.8 ± 3.1 K
CC1(C)[C@@H]2CC[C@@]1(C)[C@@H](O)C2 [d-borneol]	3.03 ± 0.73 kJ/mol	0.75 ± 0.72 kJ/mol	481.6 ± 3.1 K	346.7 ± 3.1 K	213.5 ± 3.1 K
CC1(C)[C@H]2CC[C@]1(C)[C@H](O)C2 [(1S-endo)-1,7,7-trimethylbicyclo[2.2.1]heptan-2-ol]	2.99 ± 0.73 kJ/mol	0.72 ± 0.72 kJ/mol	479.7 ± 3.1 K	347.4 ± 3.1 K	212.3 ± 3.1 K
CC1(C)[C@H]2CC[C@]1(C)C(=O)C2 [(1S)-1,7,7-trimethylbicyclo[2.2.1]heptan-2-one]	0.16 ± 0.71 kJ/mol	13.2 ± 0.77 kJ/mol	453.9 ± 3.1 K	375.3 ± 3.1 K	246.3 ± 3.1 K
